Results: patent US20210283098A1, “Methods and Compositions for Treating Pain and Itch” (YISSUM RESEARCH DEVELOPMENT COMPANY OF THE HEBREW …, priority 2018, published 2021)
Like-named read-outs stand apart in the source and are kept apart here.

Tests used:
male Sprague-Dawley rats [1] = assay: Thermal paw withdrawal latency from radiant heat source (Hargreaves) after peri-sciatic injection; type: in vivo, rat
cannabinoid CB2 receptor = cannabinoid CB2 receptor (Homo sapiens, UniProt P34972); settings: cited from earlier work
male Sprague-Dawley rats [2] = assay: Motor function score after peri-sciatic injection; type: in vivo, rat
TRPV1-HEK-293 cells [3] = settings: 1% QX-314, 24 hour treatment; Stueber et al., Anesthesiology, 2016; cited from earlier work
TRPV1-HEK-293 cells [4] = assay: Cell viability by double staining with PI and FITC annexin V; type: cell-based
Procedure: Similar treatment with 1 μg/μl capsaicin lead, after 24 hours, to death of more than 50% of cells. […] Representative of 5 experiments. FIG. 4B is a bar graph summarizing the number of dead TRPV1-HEK-293 cells without any treatment (white), treated with 2% chloroprocaine (grey) or 1 μg/μl capsaicin (black) at the indicated time points.

TRPV1 channels = molecular target: T1, TRPV1 channels (Homo sapiens, UniProt Q8NER1); assay: Calcium imaging (Fura-2) in HEK-293 cells stably expressing hTRPV1; type: cell-based; settings: hTRPV1-HEK-293; chloroprocaine 1-5 mM bath applied 120 s; capsaicin short (5 s) focal application
T1 construct: expressed in transfected cells
Procedure: To that end, we performed calcium imaging experiments on HEK-293 cells which stably express TRPV1 and TRPA1 using HEK-293t cells for control. The cells were cultured in standard DMEM with 10% FBS, 100 U/ml penicillin and 100 μg/ml streptomycin and 2 mM Glutamax. 5 μg/ml blasticidin and 0.35% Zeocin were added for stable expression of hTRPV1 and for induction tetracycline 0.1 μg/ml was added to the medium 16 to 24 hours prior to experiments. Cells were cultivated at 37° C. and 5% CO2 and prepared on Poly-D-Lysin coated coverslips and were loaded with Fura-2 AM (stock in DMSO), for 45-60 minutes in a bath solution composed of (in mM): 145 NaCl, 5 KCl, 2 CaCl2, 1 MgCl2, 10 Glucose, 10 HEPES. They were then rinsed for 45-60 minutes for de-esterification of intracellular AM esters. Intracellular [Ca^2+]i was measured fluoroimetrically as ratiometric excitation at 340 nm and 380 nm (ΔF340/380, emission collected at 510 nm) using an inverted microscope (Nikon Eclipse Ti), equipped with an Epi-Fl attachment; perfect focus system (Nikon, Japan) and Exi Aqua monochromator (QImaging). […] A PV-820 Pneumatic PicoPump (WPI) was used for short (5 s) focal applications of capsaicin. Immediately after the puff application, capsaicin was washed out by perfusing with external solution.

[5] = cited from earlier work

T1 sequence (Q8NER1 whole entry): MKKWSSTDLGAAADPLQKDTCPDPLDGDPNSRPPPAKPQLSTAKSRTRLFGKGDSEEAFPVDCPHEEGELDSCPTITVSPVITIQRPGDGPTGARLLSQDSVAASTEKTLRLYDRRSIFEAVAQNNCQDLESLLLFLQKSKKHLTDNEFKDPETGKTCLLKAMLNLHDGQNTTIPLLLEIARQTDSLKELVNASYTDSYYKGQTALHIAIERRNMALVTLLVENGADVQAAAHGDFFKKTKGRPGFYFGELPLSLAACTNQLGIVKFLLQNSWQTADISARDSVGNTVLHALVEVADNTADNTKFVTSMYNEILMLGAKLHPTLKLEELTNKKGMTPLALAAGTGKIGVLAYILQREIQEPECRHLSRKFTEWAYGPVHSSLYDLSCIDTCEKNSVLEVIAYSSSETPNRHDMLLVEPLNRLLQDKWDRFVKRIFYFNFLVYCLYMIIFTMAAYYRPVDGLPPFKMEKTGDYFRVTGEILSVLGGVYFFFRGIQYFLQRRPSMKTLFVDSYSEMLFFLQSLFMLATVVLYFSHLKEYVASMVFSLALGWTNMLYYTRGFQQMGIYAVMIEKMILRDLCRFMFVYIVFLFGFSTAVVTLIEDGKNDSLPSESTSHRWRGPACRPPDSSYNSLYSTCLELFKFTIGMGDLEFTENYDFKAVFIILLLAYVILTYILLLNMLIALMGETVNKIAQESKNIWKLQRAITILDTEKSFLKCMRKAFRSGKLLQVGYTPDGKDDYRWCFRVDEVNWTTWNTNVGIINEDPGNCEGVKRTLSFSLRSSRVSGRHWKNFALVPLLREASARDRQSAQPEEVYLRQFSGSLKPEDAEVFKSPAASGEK
Chain of cannabinoid CB2 receptor (P34972 whole entry): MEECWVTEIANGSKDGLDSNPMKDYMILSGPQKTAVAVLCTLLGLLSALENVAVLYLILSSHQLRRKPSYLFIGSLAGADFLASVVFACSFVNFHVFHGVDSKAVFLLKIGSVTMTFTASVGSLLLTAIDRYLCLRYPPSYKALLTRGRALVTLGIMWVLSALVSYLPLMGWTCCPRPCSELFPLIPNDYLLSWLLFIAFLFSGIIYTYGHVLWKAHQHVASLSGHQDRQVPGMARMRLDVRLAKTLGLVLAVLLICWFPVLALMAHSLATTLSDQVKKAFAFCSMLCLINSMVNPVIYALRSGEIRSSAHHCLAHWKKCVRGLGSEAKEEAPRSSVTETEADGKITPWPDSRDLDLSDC

## C=C(C)[C@@H]1CCC(C)=C[C@H]1c1c(O)cc(CCCCC)cc1O [CBD, 2-[(1R,6R)-6-isopropenyl-3-methylcyclohex-2-en-1-yl]-5-pentylbenzene-1,3-diol]
Male Sprague-Dawley rats [1]; Example 6, saline with 1% CBD
  effect on pain behavior: did not affect pain behavior
Cannabinoid CB2 receptor
  affinity for CB2 receptor: very low affinity
Male Sprague-Dawley rats [2]; Example 6, 1% CBD alone
  effect on response to noxious stimuli and motor abilities: did not affect either response to noxious stimuli or motor abilities at all

## CC[N+](CC)(CC)CC(=O)Nc1c(C)cccc1C [QX-314]
TRPV1-HEK-293 cells [3]
  cell death: 55%

## COc1cc(CNC(=O)CCCC/C=C/C(C)C)ccc1O [capsaicin]
TRPV1-HEK-293 cells [4]; 1 μg/μl capsaicin, 24 hours
  death of cells: more than 50%
TRPV1 channels
  change in intracellular calcium (Fura-2 fluorescence): substantial increase in FURA-2 fluorescence

## CCN(CC)CCOC(=O)c1ccc(N)cc1Cl [chloroprocaine]
Male Sprague-Dawley rats [1]; 0.5% chloroprocaine alone, same motor and pain block
  differential block: no differential block
Male Sprague-Dawley rats [1]; Example 2, peri-sciatic, 0.5% chloroprocaine, 1 μg/μl capsaicin, 52° C.
  effect on response to noxious heat (PWL normalized to baseline): does not affect the response to noxious heat
Male Sprague-Dawley rats [1]; Example 6, 0.5% chloroprocaine with vehicle for CBD
  duration of inhibition of response to noxious heat: about 30 min
TRPV1-HEK-293 cells [4]; 2% chloroprocaine, 24 hours treatment
  cell death: does not cause cell death
TRPV1 channels
  change in intracellular calcium (Fura-2 fluorescence): does not induce calcium influx
Male Sprague-Dawley rats [2]; Example 2, peri-sciatic injection, 0.5% chloroprocaine alone
  duration of motor block: 30 min
Male Sprague-Dawley rats [2]; Example 6, peri-sciatic, 0.5% chloroprocaine with 1% CBD or with vehicle for CBD
  duration of motor block: 30 min

## CCCCNc1ccc(C(=O)OCCN(C)C)cc1 [tetracaine]
[5]
  pKa: 8.2
